How the values were obtained:
[1] = tested on: OVCAR8; assay: drug sensitivity score (DSS2) on cancer cell count; higher = more sensitive; extreme values may be limits of the assay; conditions: 72 h
Procedure, shortened: (§1)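 Ovarian cancer cells were cultured either alone or directly mixed 1:1 with lung or skin fibroblasts and plated onto 384-well plates acoustically pre-spotted with 528 approved and investigational compounds at 5 concentrations for 72 h of treatment. After fixation, cells were immunostained for CK8/18 with Hoechst and imaged at 10× across 4 fields to count cancer cells. Responses were fitted with 4-parameter logistic curves, and from these fits a drug sensitivity score was derived in Breeze, with screen quality assessed by Z'.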

[2] = tested on: KURAMOCHI; assay: as above; conditions: 72 h
Procedure, shortened: as §1

[3] = co-cultured fibroblast: BJHTERT
[4] = co-cultured fibroblast: none (monoculture)

| SMILES | drug sensitivity score [1, 3] [DSS] | drug sensitivity score ([1]; co-cultured fibroblast: WI38) [DSS] | drug sensitivity score [1, 4] [DSS] | drug sensitivity score [2, 3] [DSS] | drug sensitivity score ([2]; co-cultured fibroblast: WI38) [DSS] | drug sensitivity score [2, 4] [DSS] |
| --- | --- | --- | --- | --- | --- | --- |
| COc1ccc(-c2nc(N3CCOCC3)c3sc(CN(C)c4ncc(C(=O)NO)cn4)cc3n2)cn1 [CUDC-907] | 43.2 | 41.7 | 30 | 34.1 | 28.6 | 29.7 |
| CO[C@H]1C(=O)[C@]2(C)[C@@H](OC)C[C@H]3OC[C@@]3(OC(C)=O)[C@H]2[C@H](OC(=O)c2ccccc2)[C@]2(O)C[C@H](OC(=O)[C@H](O)[C@@H](NC(=O)OC(C)(C)C)c3ccccc3)C(C)=C1C2(C)C [Cabazitaxel] | 39.1 | 36 | 26 | 27.5 | 27.8 | 21.4 |
| COc1cc2nccc(Oc3ccc(NC(=O)C4(C(=O)Nc5ccc(F)cc5)CC4)cc3)c2cc1OC [Cabozantinib] | 0 | 0.2 | 4.4 | 0.4 | 0 | 0 |
| C=CC(=O)Nc1cc2c(Nc3ccc(F)c(Cl)c3)ncnc2cc1OCCCN1CCOCC1 [Canertinib] | 9.6 | 8.3 | 9.4 | 9.4 | 9.2 | 24.2 |
| CCCCCOC(=O)Nc1nc(=O)n([C@@H]2O[C@H](C)[C@@H](O)[C@H]2O)cc1F [Capecitabine] | 0 | 2.7 | 1.2 | 3.3 | 0 | 0 |
| CNC(=O)c1ccc(-c2cnc3ncc(Cc4ccc5ncccc5c4)n3n2)cc1F [Capmatinib] | 0 | 0 | 0 | 0 | 0 | 0 |
| O=C(O)C1(C(=O)O)CCC1.[NH2-].[NH2-].[Pt+2] [Carboplatin] | 9.4 | 8.6 | 12.3 | 13.3 | 18.1 | 22.9 |
| CC(C)C[C@H](NC(=O)[C@H](CCc1ccccc1)NC(=O)CN1CCOCC1)C(=O)N[C@@H](Cc1ccccc1)C(=O)N[C@@H](CC(C)C)C(=O)[C@@]1(C)CO1 [Carfilzomib] | 26.2 | 18 | 17.8 | 21.8 | 23.4 | 22.6 |
| COc1cc2c(Oc3ccc4[nH]c(C)cc4c3F)ncnc2cc1OCCCN1CCCC1 [Cediranib] | 0 | 0 | 0 | 0 | 0 | 0 |
| Cc1ccc(-c2cc(C(F)(F)F)nn2-c2ccc(S(N)(=O)=O)cc2)cc1 [Celecoxib] | 0.1 | 0 | 0.1 | 0 | 0 | 0.5 |
| CCS(=O)(=O)N1CCN(c2ccc(Nc3ncc(C(N)=O)c(NC4CC4)n3)cc2)CC1 [Cerdulatinib] | 0 | 4.3 | 1.1 | 0 | 4.3 | 1.1 |
| Cc1cc(Nc2ncc(Cl)c(Nc3ccccc3S(=O)(=O)C(C)C)n2)c(OC(C)C)cc1C1CCNCC1 [Ceritinib] | 1.8 | 0 | 3.7 | 1.3 | 0 | 2.2 |
| CC(C)[C@H]1C(=O)N[C@@H](CCCNC(=N)N)C(=O)NCC(=O)N[C@@H](CC(=O)O)C(=O)N[C@H](Cc2ccccc2)C(=O)N1C [Cilengitide] | 9.6 | 16.3 | 13.2 | 5.8 | 3.3 | 7.4 |
| N.N.[Cl][Pt][Cl] [Cisplatin] | 7.2 | 9.4 | 8.5 | 1.6 | 6.5 | 4.7 |
| Nc1nc(Cl)nc2c1ncn2[C@H]1C[C@H](O)[C@@H](CO)O1 [Cladribine] | 14.7 | 20.7 | 15.7 | 5.2 | 6.7 | 1.4 |
| Nc1nc(Cl)nc2c1ncn2[C@@H]1O[C@H](CO)[C@@H](O)[C@@H]1F [Clofarabine] | 30.7 | 28.7 | 27.7 | 13 | 19.7 | 10.7 |
| CCN(CC)CCOc1ccc(C(=C(Cl)c2ccccc2)c2ccccc2)cc1 [Clomifene] | 4.3 | 10.1 | 1.9 | 3.7 | 5.6 | 7.9 |
| O=C(c1ccc(F)c(F)c1Nc1ccc(I)cc1F)N1CC(O)([C@@H]2CCCCN2)C1 [Cobimetinib] | 8.4 | 2.1 | 9.6 | 11.5 | 6.4 | 7.2 |
| CC1(COc2ccc3c(c2)ncn3-c2ccc3cccc(N4CCC(N)CC4)c3n2)COC1 [Crenolanib] | 4.7 | 14.6 | 5.5 | 12.6 | 10.5 | 18 |
| C[C@@H](Oc1cc(-c2cnn(C3CCNCC3)c2)cnc1N)c1c(Cl)ccc(F)c1Cl [Crizotinib] | 0.7 | 0 | 0 | 0 | 0 | 0 |
| CC(C)(C)c1nc(-c2cccc(NS(=O)(=O)c3c(F)cccc3F)c2F)c(-c2ccnc(N)n2)s1 [Dabrafenib] | 0.2 | 15.2 | 0.5 | 0 | 0 | 0 |
| COc1cc2ncnc(Nc3ccc(F)c(Cl)c3)c2cc1NC(=O)/C=C/CN1CCCCC1 [Dacomitinib] | 5.5 | 0 | 3.2 | 7 | 3.7 | 8.3 |
| Cc1c2oc3c(C)ccc(C(=O)N[C@@H]4C(=O)N[C@H](C(C)C)C(=O)N5CCC[C@H]5C(=O)N(C)CC(=O)N(C)[C@@H](C(C)C)C(=O)O[C@@H]4C)c3nc-2c(C(=O)N[C@@H]2C(=O)N[C@H](C(C)C)C(=O)N3CCC[C@H]3C(=O)N(C)CC(=O)N(C)[C@@H](C(C)C)C(=O)O[C@@H]2C)c(N)c1=O [Dactinomycin] | 31.6 | 32.4 | 31.8 | 25.7 | 25.9 | 34 |
| Cn1c(=O)n(-c2ccc(C(C)(C)C#N)cc2)c2c3cc(-c4cnc5ccccc5c4)ccc3ncc21 [Dactolisib] | 13.3 | 8.2 | 17.6 | 12.4 | 15.5 | 20.5 |

| SMILES | drug sensitivity score [1, 3] [DSS] | drug sensitivity score ([1]; co-cultured fibroblast: WI38) [DSS] | drug sensitivity score [1, 4] [DSS] | drug sensitivity score [2, 3] [DSS] | drug sensitivity score ([2]; co-cultured fibroblast: WI38) [DSS] | drug sensitivity score [2, 4] [DSS] |
| --- | --- | --- | --- | --- | --- | --- |
| CO[C@@H](C(=O)N1Cc2[nH]nc(NC(=O)c3ccc(N4CCN(C)CC4)cc3)c2C1)c1ccccc1 [Danusertib] | 15 | 19.2 | 21 | 22.9 | 20.9 | 28.6 |
| O=C(/C=C/c1cccnc1)NCCCCC1CCN(C(=O)c2ccccc2)CC1 [Daporinad] | 22.5 | 22.2 | 27.1 | 16 | 12.6 | 20.4 |
| CCN(CC)CCN(Cc1ccc(-c2ccc(C(F)(F)F)cc2)cc1)C(=O)Cn1c(SCc2ccc(F)cc2)nc(=O)c2c1CCC2 [Darapladib] | 0 | 8.3 | 0.4 | 0 | 0 | 0 |
| Cc1nc(Nc2ncc(C(=O)Nc3c(C)cccc3Cl)s2)cc(N2CCN(CCO)CC2)n1 [Dasatinib] | 13.6 | 21.9 | 21.9 | 18.4 | 17 | 20.4 |
| COc1cccc2c1C(=O)c1c(O)c3c(c(O)c1C2=O)C[C@@](O)(C(C)=O)C[C@@H]3O[C@H]1C[C@H](N)[C@H](O)[C@H](C)O1 [Daunorubicin] | 14.7 | 15.9 | 15.1 | 11.9 | 14.6 | 13.9 |
| CC[C@@](C)(Nc1ccnc(-c2c[nH]c3ncccc23)n1)C(=O)NCC(F)(F)F [Decernotinib] | 0 | 0 | 0 | 0 | 3.3 | 0 |
| Nc1ncn([C@H]2C[C@H](O)[C@@H](CO)O2)c(=O)n1 [Decitabine] | 6.9 | 11.4 | 4.8 | 0 | 1.7 | 0.3 |
| CC(=O)N(O)CCCCCNC(=O)CCC(=O)N(O)CCCCCNC(=O)CCC(=O)N(O)CCCCCN [Deferoxamine] | 3.6 | 3.5 | 7.7 | 4.5 | 7.3 | 1.6 |
| C[C@H]1O[C@@H](O[C@H]2[C@@H](O)C[C@H](O[C@H]3[C@@H](O)C[C@H](O[C@H]4CC[C@@]5(C)[C@H](CC[C@@H]6[C@@H]5C[C@@H](O)[C@]5(C)[C@@H](C7=CC(=O)OC7)CC[C@]65O)C4)O[C@@H]3C)O[C@@H]2C)C[C@H](O)[C@@H]1O [Digoxin] | 14.9 | 11.6 | 12.7 | 8.6 | 10.9 | 14.2 |
| CCc1cnn2c(NCc3ccc[n+]([O-])c3)cc(N3CCCC[C@H]3CCO)nc12 [Dinaciclib] | 26.4 | 17.1 | 23.1 | 17.2 | 23.9 | 23 |
| CC(=O)O[C@@]12CO[C@@H]1C[C@H](O)[C@@]1(C)C(=O)[C@H](O)C3=C(C)[C@@H](OC(=O)[C@H](O)[C@@H](NC(=O)OC(C)(C)C)c4ccccc4)C[C@@](O)([C@@H](OC(=O)c4ccccc4)[C@H]21)C3(C)C [Docetaxel] | 31.8 | 31.9 | 28.3 | 27.4 | 26.2 | 21.1 |
| Cc1ccc(-n2nc(C(C)(C)C)cc2NC(=O)Nc2ccc(OCCN3CCOCC3)c3ccccc23)cc1 [Doramapimod] | 4.4 | 0.1 | 1.4 | 4.2 | 3.4 | 2.8 |
| CN1CCN(c2ccc3nc(-c4c(N)c5c(F)cccc5[nH]c4=O)[nH]c3c2)CC1 [Dovitinib] | 0.5 | 0 | 0.3 | 0 | 0 | 0 |
| COc1cccc2c1C(=O)c1c(O)c3c(c(O)c1C2=O)C[C@@](O)(C(=O)CO)C[C@@H]3O[C@H]1C[C@H](N)[C@H](O)[C@H](C)O1 [Doxorubicin] | 12.5 | 12.3 | 12.1 | 10.7 | 12.7 | 25.1 |
| C[C@H](Nc1ncnc2nc[nH]c12)c1cc2cccc(Cl)c2c(=O)n1-c1ccccc1 [Duvelisib] | 0.4 | 0 | 0 | 4.6 | 0.5 | 0.3 |
| Cc1ccc(NS(=O)(=O)c2cccc(C#N)c2)c2[nH]cc(C#N)c12 [E7820] | 5.4 | 0 | 12.8 | 6.5 | 9.7 | 15.8 |
| Cc1cc(Nc2cc(N3CCN(C)CC3)nc(/C=C/c3ccccc3)n2)n[nH]1 [ENMD-2076] | 13.1 | 8.6 | 10.6 | 11.1 | 8.4 | 3.7 |
| Cc1cc(C)c(CNC(=O)c2cc(-c3ccc(CN4CCOCC4)cc3)cc3c2cnn3C2CCCC2)c(=O)[nH]1 [EPZ-5687] | 0 | 0 | 2.7 | 0 | 0 | 0 |
| NC(=O)/C(=C/n1cnc(-c2cc(C(F)(F)F)cc(C(F)(F)F)c2)n1)c1cncnc1 [Eltanexor] | 26.7 | 24.4 | 26.8 | 20 | 20.8 | 26.5 |
| CC(C)(O)CNc1nc(Nc2ccnc(C(F)(F)F)c2)nc(-c2cccc(C(F)(F)F)n2)n1 [Enasidenib] | 0 | 0 | 0 | 0.3 | 0 | 0 |
| COC(=O)N[C@@H](C)CNc1nccc(-c2cn(C(C)C)nc2-c2cc(Cl)cc(NS(C)(=O)=O)c2F)n1 [Encorafenib] | 0 | 0 | 0.1 | 0 | 0 | 0 |
| C[C@@H]1CN(C(=O)c2ccc(NC(=O)c3cc(O[C@H](C)c4c(Cl)ccc(F)c4Cl)c(N)nn3)cc2)C[C@H](C)N1 [Ensartinib] | 0 | 0.1 | 0 | 1 | 1 | 0 |
| Nc1ccccc1NC(=O)c1ccc(CNC(=O)OCc2cccnc2)cc1 [Entinostat] | 8.5 | 11.7 | 11.1 | 6 | 14.3 | 9.2 |
| c1cn2cc(-c3ccc4cn[nH]c4c3)nc(Nc3ccc(N4CCOCC4)cc3)c2n1 [Entospletinib] | 1.2 | 0 | 0 | 0 | 1.4 | 0 |
